Measured values from patent US20120244102A1, “AGENT FOR PREVENTING OR TREATING CROHN'S DISEASE, COMPRISING ORGANIC ACID POLYMER” (SANWA KAGAKU KENKYUSHO CO., LTD., priority 2010, published 2012).

System: mouse TNBS-induced Crohn's disease model
Assay: mouse TNBS-induced Crohn's disease model (pathological score, intestinal lesion score)
Assay type: in vivo
Conditions: for intestinal lesion score: scale 0-10, control group 8.1
Protocol: Seven-week-old male BALB/c Cr Slc mice were purchased from Japan SLC, Inc. After 5 days of breeding for taming, the mice were divided into 5 groups so as to eliminate the difference between body weights, and subjected to an experiment.
The hair on 2 square-cm of the abdomen of the mouse was shaved, and 1% TNBS was applied to the skin. At 7 days after the application of TNBS, the mouse was fixed under anesthesia by halothane inhalation, and 100 μL of 2.0% TNBS was injected from the rectum to initiate intestinal lesions in Crohn's disease.
In the propagermanium-administered group, 0.015% of the propagermanium was mixed with a standard feedstuff for mice CRF-1 (manufactured by Oriental Yeast Co., Ltd.) and administered by ad libitum feeding from immediately after the injection of TNBS to 3 days after the initiation. The average dose during the period of the administration of the propagermanium was calculated to be about 7.5 mg/kg/day as a dose of the propagermanium per day, from the body weight and food consumption.
In the prednisolone-administered group as a positive control, prednisolone was administered once a day as 10 mL/kg of 0.5% CMC suspension using an oral canula for mice from immediately after the injection of TNBS to 3 days after the initiation. The dose was set to be 1 mg/kg/day that is the maximum amount of a clinical general dose (30 to 40 mg/day/person).
In the salazosulfapyridine-administered group as a positive control, salazosulfapyridine was administered twice a day for 3 days as 10 mL/kg of 0.5% CMC suspension using an oral canula for mice from immediately after the injection of TNBS to 3 days after the initiation. Two dose groups: a low dose group (133 mg/kg/day) that is the maximum amount in view of a clinical general dose and a high dose group (400 mg/kg/day) that is effective in rat TNBS models, were set.
At 1, 2 and 3 days after the TNBS initiation, the pathological score (the total of the scores of weight-loss, diarrhea/loose stool and occult blood/hemorrhage) was evaluated according to the following criteria.
(A) Weight-loss score (when the body weight before the TNBS initiation is considered to be 100%) • 0: No decrease • 1: Decreased by within 5% • 2: Decreased by 5-10% • 3: Decreased by 10-20% • 4: Decreased by more than 20%
(B) Diarrhea/loose stool score • 0: Normal. A solid form is maintained. • 2: Semi-solid loose stool. Wet, and readily collapses when being touched. • 4: Diarrhea, with flowability.
(C) Occult blood/hemorrhage score • 0: Normal. No blood is incorporated in stool. • 2: Occult blood. Blood is incorporated in stool. Perianal is slightly dirty. • 4: Bloody stool. Blood is incorporated in stool. Perianal is dirty with blood.
At 3 days after the TNBS initiation, Evans Blue was administered intravenously. At 30 minutes after the administration, the mouse was sacrificed by cervical dislocation, from the colon to the anus were excised and the inner cavity was washed with physiological saline, the lumen was opened, and the degree of the lesions was scored. The intestinal lesion score was evaluated by observing the colon by using a stereomicroscope according to the following criteria. • 0: No damage. • 1: Hyperemia • 2: Hyperemia and thickening of gut walls. No ulcer. • 3: Ulcer is present, but is not thickened. • 4: Plural lesion sites are present. • 5: Widespread lesion sites (1 cm or more in total) • 6: Widespread lesion sites (1.5 cm or more in total) • 7: Widespread lesion sites (2 cm or more in total) • 8: Widespread lesion sites (2.5 cm or more in total) • 9: Widespread lesion sites (3 cm or more in total) • 10: Widespread lesion sites (3.5 cm or more in total)

Molecule: 3-oxygermylpropionic acid polymer [propagermanium]
- pathological score (total of weight-loss, diarrhea/loose stool and occult blood/hemorrhage scores) (7.5 mg/kg propagermanium mixed in feed, 2 days after the TNBS initiation): significant effect of improving the pathological score was confirmed
- pathological score (total of weight-loss, diarrhea/loose stool and occult blood/hemorrhage scores) (7.5 mg/kg propagermanium mixed in feed, 3 days after the TNBS initiation): significant effect of improving the pathological score was confirmed

Molecule: C[C@]12C=CC(=O)C=C1CC[C@@H]1[C@@H]2[C@@H](O)C[C@@]2(C)[C@H]1CC[C@]2(O)C(=O)CO [prednisolone]
- pathological score (total of weight-loss, diarrhea/loose stool and occult blood/hemorrhage scores) (1 mg/kg prednisolone oral, 2 days after the initiation): effect was not observed
- pathological score (total of weight-loss, diarrhea/loose stool and occult blood/hemorrhage scores) (1 mg/kg prednisolone oral, 3 days after the initiation): effect was observed
- intestinal lesion score (prednisolone 1 mg/kg oral, 3 days after the TNBS initiation): 5.2

Molecule: O=C(O)c1cc(/N=N/c2ccc(S(=O)(=O)Nc3ccccn3)cc2)ccc1O [salazosulfapyridine]
- pathological score (total of weight-loss, diarrhea/loose stool and occult blood/hemorrhage scores) (133 mg/kg salazosulfapyridine oral (low dose group)): significant improving effect was not observed
- pathological score (total of weight-loss, diarrhea/loose stool and occult blood/hemorrhage scores) (400 mg/kg salazosulfapyridine oral (high dose group), 2 days after the initiation): improving effect was found
- pathological score (total of weight-loss, diarrhea/loose stool and occult blood/hemorrhage scores) (400 mg/kg salazosulfapyridine oral (high dose group), 3 days after the initiation): improving effect was found
- intestinal lesion score (salazosulfapyridine 133 mg/kg oral, 3 days after the TNBS initiation): 6.1
- intestinal lesion score (salazosulfapyridine 400 mg/kg oral, 3 days after the TNBS initiation): 6.8
